Columns and labels:
[1] = test system: FADD−/− Jurkat cells; test: Necroptosis inhibition assay, TNF-α-induced necroptosis (CellTiter-Glo 2.0); format: cell-based, human; conditions: TNF-α 15 ng/mL; for Necroptosis inhibition assay (Rescue %) 1 μM: compound 1 μM; for Necroptosis inhibition assay (Rescue %) 10 μM: compound 10 μM
Outline: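 Tested at three fixed concentrations (0.1, 1, 10 μM final) with a 30-minute room-temperature preincubation ahead of 15 ng/mL TNF-α challenge lasting 20 to 24 hours. Inhibition rate and cytotoxicity derive from ATP luminescence.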

[2] = molecular target: T1, MLKL (Homo sapiens, UniProt Q8NB16); test: MLKL degradation assay in HepG2 cell line (western blot); format: cell-based; set-up: endogenous in cells; host or cells: HepG2 or HaCaT; conditions: cell line not given; for Degradation assay (Degradation %) 1 μM: compound 1 μM; for Degradation assay (Degradation %) 10 μM: compound 10 μM
T1 sequence (Q8NB16 1-471): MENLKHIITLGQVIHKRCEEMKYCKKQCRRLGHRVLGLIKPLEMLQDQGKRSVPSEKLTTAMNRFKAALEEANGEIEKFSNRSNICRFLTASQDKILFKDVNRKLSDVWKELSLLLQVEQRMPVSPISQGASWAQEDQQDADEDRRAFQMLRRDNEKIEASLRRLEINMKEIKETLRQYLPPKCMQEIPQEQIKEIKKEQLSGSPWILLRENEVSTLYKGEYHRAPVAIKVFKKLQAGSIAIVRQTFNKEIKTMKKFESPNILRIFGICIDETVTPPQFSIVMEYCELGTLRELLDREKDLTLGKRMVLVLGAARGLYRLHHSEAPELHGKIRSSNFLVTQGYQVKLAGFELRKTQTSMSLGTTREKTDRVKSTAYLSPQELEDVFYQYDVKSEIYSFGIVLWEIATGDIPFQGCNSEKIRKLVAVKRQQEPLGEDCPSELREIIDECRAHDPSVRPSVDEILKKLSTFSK
Outline: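 Degradation is judged from MLKL band intensity on immunoblots of HepG2 lysates taken after 20-24 hours of compound at final 1 or 10 μM.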

[3] = molecular target: T1, MLKL; test: Measurement of binding affinity with MLKL receptor (competitive binding assay, Kd); set-up: made in house; host or cells: HEK 293 cell line (T7 phage in E. coli BL21-derived host is also described)
Outline: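 Kd comes from a bead-based competition format: compound-dependent loss of DNA-tagged, HEK 293-expressed MLKL capture, measured as eluate kinase by qPCR. Final DMSO is 0.9%.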

Structure (SMILES)	Degradation assay (Degradation %) 1 μM [2]	Degradation assay (Degradation %) 10 μM [2]	Kd [3]	Necroptosis inhibition assay (Rescue %) 1 μM [1]	Necroptosis inhibition assay (Rescue %) 10 μM [1]	Necroptosis inhibition assay (Rescue %) 1 μM ([1]; FADD−/− Jurkat cells)	Necroptosis inhibition assay (Rescue %) 10 μM ([1]; FADD−/− Jurkat cells)
Nc1ncc(-c2cnn(C3CCN(CCOC4CCN(c5cccc6c5C(=O)N(C5CCC(=O)NC5=O)C6=O)CC4)CC3)c2)nc1C(=O)OC(C(=O)Nc1ccc(F)cc1)c1ccccc1 (centres unmarked) [TDH-253, 2-((4-fluorophenyl)amino)-2-oxo-1-phenylethyl 3-amino-6-(1-(1-(2-((1-(2-(2,6-dioxopiperidin-3-yl)-1,3-dioxoisoindolin-4-yl)piperidin-4-yl)oxy)ethyl)piperidin-4-yl)-1H-pyrazol-4-yl)pyrazine-2-carboxylate]	80.74%	59.15%	10 nM	65.01%	36.1%	–	–
Nc1ncc(-c2cnn(C3CCN(CCCN4CCN(C(=O)COc5ccc6c(c5)C(=O)N(C5CCC(=O)NC5=O)C6=O)CC4)CC3)c2)nc1C(=O)O[C@@H](C(=O)Nc1cccc(Cl)c1)c1ccccc1 (stereo partly drawn) [TDH-485, (R)-2-((3-chlorophenyl)amino)-2-oxo-1-phenylethyl 3-amino-6-(1-(1-(3-(4-(2-((2-(2,6-dioxopiperidin-3-yl)-1,3-dioxoisoindolin-5-yl)oxy)acetyl)piperazin-1-yl)propyl)piperidin-4-yl)-1H-pyrazol-4-yl)pyrazine-2-carboxylate]	87.46%	93.6%	10 nM	–	–	61.51%	50.03%
Nc1ncc(-c2cnn(C3CCN(CCCC4CCN(c5ccc6c(c5)C(=O)N(C5CCC(=O)NC5=O)C6=O)CC4)CC3)c2)nc1C(=O)O[C@@H](C(=O)Nc1ccc(F)cc1)c1ccccc1 (stereo partly drawn) [TDH-481, (R)-2-((4-fluorophenyl)amino)-2-oxo-1-phenylethyl 3-amino-6-(1-(1-(3-(1-(2-(2,6-dioxopiperidin-3-yl)-1,3-dioxoisoindolin-5-yl)piperidin-4-yl)propyl)piperidin-4-yl)-1H-pyrazol-4-yl)pyrazine-2-carboxylate]	74.5%	63.36%	8.8 nM	–	–	17.64%	9.86%
Nc1ncc(-c2cnn(C3CCN(CC4CCN(C(=O)C5CN(c6cccc7c6C(=O)N(C6CCC(=O)NC6=O)C7=O)C5)CC4)CC3)c2)nc1C(=O)O[C@@H](C(=O)Nc1ccc(F)cc1)c1ccccc1 (stereo partly drawn) [TDH-138, (R)-2-((4-fluorophenyl)amino)-2-oxo-1-phenylethyl 3-amino-6-(1-(1-((1-(1-(2-(2,6-dioxopiperidin-3-yl)-1,3-dioxoisoindolin-4-yl)azetidine-3-carbonyl)piperidin-4-yl)methyl)piperidin-4-yl)-1H-pyrazol-4-yl)pyrazine-2-carboxylate]	40.46%	25.69%	4.2 nM	70.53%	60.57%	–	–

Stronger by Kd [3], values ahead:

Degradation assay (Degradation %) 1 μM [2]	Degradation assay (Degradation %) 10 μM [2]	Kd [3]	Structure (SMILES)	Necroptosis inhibition assay (Rescue %) 1 μM [1]	Necroptosis inhibition assay (Rescue %) 10 μM [1]	Necroptosis inhibition assay (Rescue %) 1 μM ([1]; FADD−/− Jurkat cells)	Necroptosis inhibition assay (Rescue %) 10 μM ([1]; FADD−/− Jurkat cells)
46.49%	75.71%	3.9 nM	Nc1ncc(-c2cnn(C3CCN(CC4CCN(CCC5CCN(c6cc7c(cc6F)C(=O)N(C6CCC(=O)NC6=O)C7=O)CC5)CC4)CC3)c2)nc1C(=O)O[C@@H](C(=O)Nc1ccc(F)cc1)c1ccccc1 (stereo partly drawn) [TDH-513, (R)-2-((4-fluorophenyl)amino)-2-oxo-1-phenylethyl 3-amino-6-(1-(1-((1-(2-(1-(2-(2,6-dioxopiperidin-3-yl)-6-fluoro-1,3-dioxoisoindolin-5-yl)piperidin-4-yl)ethyl)piperidin-4-yl)methyl)piperidin-4-yl)-1H-pyrazol-4-yl)pyrazine-2-carboxylate]	–	–	14.47%	−61.68%
70.78%	51.56%	3.5 nM	Nc1ncc(-c2cnn(C3CCN(C(=O)CC4CCN(C(=O)C5CCN(c6cccc7c6C(=O)N(C6CCC(=O)NC6=O)C7=O)CC5)CC4)CC3)c2)nc1C(=O)O[C@@H](C(=O)Nc1ccc(F)cc1)c1ccccc1 (stereo partly drawn) [TDH-341, (R)-2-((4-fluorophenyl)amino)-2-oxo-1-phenylethyl 3-amino-6-(1-(1-(2-(1-(1-(2-(2,6-dioxopiperidin-3-yl)-1,3-dioxoisoindolin-4-yl)piperidine-4-carbonyl)piperidin-4-yl)acetyl)piperidin-4-yl)-1H-pyrazol-4-yl)pyrazine-2-carboxylate]	38.23%	24.8%	–	–
48.66%	81.15%	1.6 nM	Nc1ncc(-c2cnn(C3CCN(C[C@H]4CC[C@H](CNC(=O)CNc5ccc6c(c5)C(=O)N(C5CCC(=O)NC5=O)C6=O)CC4)CC3)c2)nc1C(=O)O[C@@H](C(=O)Nc1ccc(F)cc1)c1ccccc1 (stereo partly drawn) [TDH-348, (R)-2-((4-fluorophenyl)amino)-2-oxo-1-phenylethyl 3-amino-6-(1-(1-(((1r,4r)-4-((2-((2-(2,6-dioxopiperidin-3-yl)-1,3-dioxoisoindolin-5-yl)amino)acetamido)methyl)cyclohexyl)methyl)piperidin-4-yl)-1H-pyrazol-4-yl)pyrazine-2-carboxylate]	61.43%	29.04%	–	–
80.66%	88.82%	0.98 nM	Nc1ncc(-c2cnn(C3CCN(CCCN4CCN(C(=O)COc5ccc6c(c5)C(=O)N(C5CCC(=O)NC5=O)C6=O)CC4)CC3)c2)nc1C(=O)O[C@@H](C(=O)Nc1ccc(F)cc1)c1ccccc1Cl (stereo partly drawn) [TDH-494, (R)-1-(2-chlorophenyl)-2-((4-fluorophenyl)amino)-2-oxoethyl 3-amino-6-(1-(1-(3-(4-(2-((2-(2,6-dioxopiperidin-3-yl)-1,3-dioxoisoindolin-5-yl)oxy)acetyl)piperazin-1-yl)propyl)piperidin-4-yl)-1H-pyrazol-4-yl)pyrazine-2-carboxylate]	–	–	43.07%	−7.06%
8.68%	62.79%	0.83 nM	Nc1ncc(-c2cnn(C3CCN(CCCCCCNC(=O)C4CN(c5ccc6c(c5)C(=O)N(C5CCC(=O)NC5=O)C6=O)C4)CC3)c2)nc1C(=O)O[C@@H](C(=O)Nc1ccc(F)cc1)c1ccccc1 (stereo partly drawn) [TDH-114, (R)-2-((4-fluorophenyl)amino)-2-oxo-1-phenylethyl 3-amino-6-(1-(1-(6-(1-(2-(2,6-dioxopiperidin-3-yl)-1,3-dioxoisoindolin-5-yl)azetidine-3-carboxamido)hexyl)piperidin-4-yl)-1H-pyrazol-4-yl)pyrazine-2-carboxylate]	13.68%	38.3%	–	–
91.76%	85.83%	0.28 nM	Nc1ncc(-c2cnn(C3CCN(CCCN4CCN(C(=O)COc5ccc6nnn(C7CCC(=O)NC7=O)c(=O)c6c5)CC4)CC3)c2)nc1C(=O)O[C@@H](C(=O)Nc1ccc(F)cc1)c1ccccc1 (stereo partly drawn) [TDH-370, (R)-2-((4-fluorophenyl)amino)-2-oxo-1-phenylethyl 3-amino-6-(1-(1-(3-(4-(2-((3-(2,6-dioxopiperidin-3-yl)-4-oxo-3,4-dihydrobenzo[d][1,2,3]triazin-6-yl)oxy)acetyl)piperazin-1-yl)propyl)piperidin-4-yl)-1H-pyrazol-4-yl)pyrazine-2-carboxylate]	52.00%	24.38%	–	–

— patent US20240252488A1 (KOREA RESEARCH INSTITUTE OF CHEMICAL TECHNOLOGY, priority 2020, published 2024)
